In patent US5817685A, “Anticonvulsive imidazoline-2,4-diones and process for making” (Arzneimittelwerk Dresden GmbH, priority 1996, dated 1998):
Like-named read-outs stand apart in the source and are kept apart here.

How the values were obtained:
[1] = tested on: pentetrazol-induced seizures; experiment: s.c. pentetrazol (PTZ) test in mice; type: in vivo; settings: mouse
Protocol: (§1) They were tested for their anticonvulsive action in vivo after i.p. administration using the international customary mouse animal models described in Pharmac Weekblad, Sc. Ed.
The most commonly used chemoconvulsant is pentetrazol which can be used as a primary screen for anticonvulsant activity when dosages that produce hindlimb tonic extension are administered. A dose of pentetrazol that produces solely clonic seizures cannot be used as primary screen for new compounds, as phenytoin and carbamazepine have no effect on the blocking of clonic seizures. This test using pentetrazol to induce seizures, used as a primary screen of anticonvulsant activity is referred to in the results below as PEZ.
^2 PTZ = S. C. pentetrazol

[2] = tested on: electrically induced seizures (maximum electroshock); experiment: maximum electroshock (MES) test in mice; type: in vivo, mouse; settings: ip
Protocol: as §1
Seizures can also be induced electrically for the identification of anticonvulsant activity. This test is referred to as the MES test for identifying CNS active drugs. A […] (60 Hz) electrical current for 0.2 s is delivered by a corneal electrode to mice. The current is four to five times as large as the threshold current needed to produce the tonic seizure. These specific parameters are used to identify compounds that prevent seizure spread, therapeutic agents for generalized tonic clonic seizures. Therapeutic agents for absence of seizures are undetected. However, when the current is lowered to […], compounds which modify both seizure spread and seizure threshold are identified.
^1 MES = maximum electroshock

[3] = octanol-H2O partition coefficient; type: physicochemical; settings: octanol-water, read-out: Log p (octanol-H2O) partition coeff.
[4] = in vivo; settings: mouse, ip
[5] = tested on: clonic seizures; settings: dose of pentetrazol that produces solely clonic seizures; cited from earlier work
[6] = tested on: seizures (maximum electroshock model, pentetrazol test); experiment: anticonvulsive action in mouse animal models (maximum electroshock and pentetrazol); type: in vivo; settings: comparison with known antiepileptics
Protocol: They were tested for their anticonvulsive action in vivo after i.p. administration using the international customary mouse animal models described in Pharmac Weekblad, Sc. Ed. The most commonly used chemoconvulsant is pentetrazol which can be used as a primary screen for anticonvulsant activity when dosages that produce hindlimb tonic extension are administered. […] This test using pentetrazol to induce seizures, used as a primary screen of anticonvulsant activity is referred to in the results below as PEZ. Seizures can also be induced electrically for the identification of anticonvulsant activity. […] A […] (60 Hz) electrical current for 0.2 s is delivered by a corneal electrode to mice. The current is four to five times as large as the threshold current needed to produce the tonic seizure. These specific parameters are used to identify compounds that prevent seizure spread, therapeutic agents for generalized tonic clonic seizures. […] However, when the current is lowered to […], compounds which modify both seizure spread and seizure threshold are identified.

[7] = ip, i.p., read-out: Action % of Animals, PTZ
[8] = mouse, i.p., read-out: Action % of Animals, MES
[9] = mouse, i.p., dose 100 mg/kg, read-out: Action % of Animals, MES

Row | SMILES | responders at 30 mg/kg [2, 8] | logP [3] | responders at 100 mg/kg [1, 7] | responders at 100 mg/kg [2, 9] | also measured
1 | O=C1CN(Cc2ccccc2C(F)(F)F)C(=O)N1 [Example 9] | 100% |  |  |  | responders at 30 mg/kg [1, 7]: 100%
2 | O=C1CN(c2ccccc2Cl)C(=O)N1 [Example 1, 1-(2-chlorophenyl)imidazoline-2,4-dione] |  | 0.49 |  |  | responders at 300 mg/kg ([1]; ip, i.p., dose 300 mg/kg, read-out: Action % of Animals, PTZ): 0%; responders at 300 mg/kg ([2]; mouse, i.p., dose 300 mg/kg, read-out: Action % of Animals, MES): 100%
3 | CCCC(CCC)C(=O)O [Valproate, reference compound] |  |  | 0% |  | responders at 100 mg/kg ([2]; Mus musculus, read-out: Action % of Animals, MES): 0%
4 | Cc1cc(Cl)ccc1N1CC(=O)NC1=O [Example 5, 1-(4-chloro-2-methylphenol)imidazoline-2,4-dione] | 100% | 0.86 |  |  | responders at 30 mg/kg [1, 7]: 100%
5 | O=C1CN(Cc2c(F)cccc2F)C(=O)N1 [Example 8, 1-(2,6-difluorobenzyl)imidazoline-2,4-dione] |  | 0.63 | 100% | 100% | ED50 ([1]; sc): 50 mg/kg; ED50 ([2]; mouse): 36 mg/kg; TD50 [4]: 123 mg/kg
6 | O=C1CN(c2cccc(Cl)c2Cl)C(=O)N1 [Example 2, 1-(2,3-dichlorophenyl)imidazoline-2,4-dione] |  | 1.16 | 100% | 100% | 
7 | O=C1CN(Cc2c(Cl)cccc2Cl)C(=O)N1 [Example 7, 1-(2,6-dichlorobenzyl)imidazoline-2,4-dione] |  | 1.44 | 100% | 100% | 
8 | O=C1CN(Cc2ccccc2Cl)C(=O)N1 [Example 6, 1-(2-chlorobenzyl)imidazoline-2,4-dione] | 100% | 1.12 |  |  | responders at 30 mg/kg [1, 7]: 100%
9 | O=C1NC(=O)C(c2ccccc2)(c2ccccc2)N1 [phenytoin] |  |  |  |  | effect on the blocking of clonic seizures [5]: no effect
10 | O=C1CN(c2c(Cl)cccc2Cl)C(=O)N1 [Example 3, 1-(2,6-dichlorophenyl)imidazoline-2,4-dione] | 100% | 0.69 | 100% |  | 
11 | O=C1CN(c2ccccc2F)C(=O)N1 [Example 4, 1-(2-fluorophenyl)imidazoline-2,4-dione] |  |  | 100% | 100% | 
12 | NC(=O)N1c2ccccc2C=Cc2ccccc21 [Carbamazepine, reference compound] |  |  | 0% | 100% | activity in maximum electroshock model or pentetrazol test [6]: active either in the maximum electroshock model, or in the pentetrazol test, but not in both; effect on the blocking of clonic seizures [5]: no effect
13 | CCCC(CCC)C(=O)O [calcium valproate] |  |  |  |  | activity in maximum electroshock model or pentetrazol test [6]: active either in the maximum electroshock model, or in the pentetrazol test, but not in both
